The values below come from US20250127806A1, “INJECTABLE LIQUID PHARMACEUTICAL COMPOSITION CONTAINING GEMCITABINE AND A CYTIDINE DEAMINASE INHIBITOR” (ST. JOHN'S UNIVERSITY, priority 2021, published 2025).

≈ marks a conversion by molar mass, not a printed value.

The test system of series [1] is MIAPACA-2 xenograft tumors. Format: in vivo. The settings on record: s.c. depot every 3rd day, four doses, Gem 10 mg/kg, Zeb 76 mg/kg. How it is done:
All experiments were done in accordance with the guidelines of the Institutional Animal Care and Use Committee (IACUC) at St John's university. MiaPaca-2 pancreatic cancer cells were maintained in DMEM medium supplemented with 100 U/mL penicillin, 1% streptomycin, 10% fetal bovine serum (FBS), in a humidified 5% CO2 atmosphere at 37° C. After acclimation for 7 days, mice were subcutaneously (s.c.) injected in the right flank with Matrigel (BD Biosciences, San Jose, CA, USA) containing 1.5×10^6 MiaPaca-2 cells. The mice were monitored closely for tumor growth by palpation and visual examination. Palpable and measurable tumors were found beginning 5-7 days after cells were injected. Tumor volume was calculated using the equation: tumor volume=(length×width×height)/2. Once the tumors reached a size of 80-120 mm^3 mice were randomly divided into 4 groups to receive s.c. injection (N=6 in each group) of respective in situ depot formulation.
Total four doses of each formulation were given. A syringe with 27G needle was used to administer 10 ul of depot formulation. Post administration, the syringe was left in the same position for 30 sec in order to obviate the sudden leakage of formulation and to facilitate the gelling of entire volumes of formulations at 37° C. Measurements of tumor size and body weight was taken every alternate day using digital calipers. […]

Series [2] can be described thus: Saturation solubility of Gemcitabine free base in various solvents. Format: physicochemical. The settings on record: for solubility: thermodynamic from solid. From the text:
In order to select a biocompatible solvent for the development of in situ depot, we carried out saturation solubility of Gemcitabine free base in 12 different organic solvent which are safe to be used for subcutaneous administration in mice. […] However, since NMP is already used in marketed in situ depot formulations and is FDA approved, we used it as a biocompatible solvent to prepare the various polymeric solutions.

Broadly, the solubility is the dissolved amount per volume that the medium holds. On to `Nc1ccn([C@@H]2O[C@H](CO)[C@@H](O)C2(F)F)c(=O)n1` [Gemcitabine free base, Gemcitabine], for which the “Antitumor efficacy (tumor volume)” value in series [1] (FIG. 3(a)) is “decreased the tumor volume”. For the same compound, in series [1] (FIG. 3(c)), the Median survival entry is “around 18 days”. The solubility in series [2] (N,N-dimethylacetamide (DMA), organic solvent or mixture, saturation solubility in N,N Dimethylacetamide (DMA)) is around 616 mg/mL (≈ 2340 mM); in series [2] (N-methyl pyrrolidone (NMP), organic solvent or mixture, saturation solubility in N-methyl pyrrolidone (NMP)), around 470 mg/mL (≈ 1790 mM); in series [2] (diglyme, organic solvent or mixture, saturation solubility in Diglyme) it was 3.81 ± 0.63 mg/mL (≈ 14.5 mM); in series [2] (ethyl lactate, organic solvent or mixture, saturation solubility in Ethyl lactate) it was 18.4 ± 0.34 mg/mL (≈ 69.7 mM); in series [2] (glycerol formal, organic solvent or mixture, saturation solubility in Glycerol formal) it was 104 ± 2.03 mg/mL (≈ 397 mM); in series [2] (isosorbide dimethyl ether, organic solvent or mixture, saturation solubility in Isosorbide dimethyl ether), 8.39 ± 0.4 mg/mL (≈ 31.9 mM). The solubility in series [2] (polyethylene glycol 300, organic solvent or mixture, saturation solubility in Polyethylene glycol 300) came out at 185 ± 13.3 mg/mL (≈ 703 mM); in series [2] (polyethylene glycol 400, organic solvent or mixture, saturation solubility in Polyethylene glycol 400), 151 ± 2.89 mg/mL (≈ 572 mM); in series [2] (propylene glycol, organic solvent or mixture, saturation solubility in Propylene glycol), 160 ± 8.29 mg/mL (≈ 609 mM); in series [2] (solketal, organic solvent or mixture, saturation solubility in Solketal) it was 17.73 ± 0.008 mg/mL (≈ 67.4 mM); in series [2] (tetraglycol/glycofurol, organic solvent or mixture, saturation solubility in Tetraglycol/Glycofurol), 129 ± 1.49 mg/mL (≈ 492 mM); in series [2] (tetrahydrofurfuryl alcohol, organic solvent or mixture, saturation solubility in Tetrahydrofurfuryl alcohol) it was 221 ± 4.97 mg/mL (≈ 841 mM). For the same compound, in series [2] (water, saturation solubility in Water), the concentration in solution (solubility) was 21.8 ± 1.44 mg/mL (≈ 82.9 mM). Also, the “Solubility of Gemcitabine free base” value in series [2] (saturation solubility in N-methyl pyrrolidone (NMP)) is 470.70 ± 3.56 mg/mL.
